Results as given in patent publication US10588972B2, “Phthalocyanine probes and uses thereof” (LI-COR, INC., priority 2014, dated 2020).
“And” between values parts separate entries of the source, which are not always exact repeats. Equal values may be shown once. Read-outs that look alike come from different tables or passages of the source. One block for each compound: values may come before it.

Experiments:
[1] = system: A431 cells; experiment: Cytotoxicity and localization of antibody probe versus small protein ligand probe after irradiation (Example 4); assay type: cell-based
Description: Both probes can bind EGFR and had approximately 2 dye molecule per conjugate molecule. It was assumed that the affinity for the receptor will be different for the antibody (generally pM), compared to the small protein (nM). Although the probe doses were different, the incubation times were the same at only 10 min. After incubation, the probes were rinsed from the cells. FIGS. 7A and 7B illustrates A431 cells that were incubated with IRDye 700DX-panitumumab or IRDye 700DX-EGF, respectively and thereafter irradiated.
Thus, upon irradiation, the production of singlet oxygen occurred at the cell surface. Typically, the EGF ligand is internalized after binding the EGF receptor.

[2] = system: A431 cells; experiment: Unlabeled versus IRDye 700DX-labeled panitumumab with and without irradiation (Example 5); assay type: cell-based; details: 10 minutes incubation
Description: Although the assumption is that the doses used in the assay described herein are too low to be a contributing factor in the cell death seen with IRDye® 700DX-labeled panitumumab, a small study was conducted to confirm that no therapeutic effect is due to the assay system. The test included the following four treatments: treatment 1 of unlabeled panitumumab and no irradiation (FIG. 11A), treatment 2 of IRDye® 700DX-labeled panitumumab and no irradiation (FIG. 11B), treatment 3 of unlabeled panitumumab and irradiation (FIG. 11C), and treatment 4 of IRDye® 700DX-labeled panitumumab and irradiation (FIG. 11D). The irradiation dose was 24 J/cm^2 with the probe incubation of 10 minutes and a concentration of 0.1 μM.

[3] = system: A431 cells; assay type: cell-based; details: 32 J/cm^2
Description: A different LED source was tested and evaluated to determine if a second source of LED would yield a similar effect as the standard LED used. A straight forward evaluation was set up with four treatments (treatments A-D). The tests were performed in triplicate in order to examine reproducibility. The test included the following four treatments: treatment A of no probe and irradiation, treatment B of IRdye® 700DX-labeled EGF and no irradiation, treatment C of IRDye® 700DX-labeled EGF and irradiation, and treatment D of IRDye® 700DX-labeled panitumumab and irradiation. The probe dose was about 0.1 μM labeled panitumumab and 0.5 μM 700DX-labeled EGF. Irradiation was for 10 minutes at an irradiation dose of 32 J/cm^2.
Significant and similar effects for both probes together and in triplicate thus providing clear evidence that IRDye® 700DX-labeled small protein can kill cells similarly to an IRDye 700DX-labeled antibody. Conditions for use of either probe may be unique to the individual probe. […] The fluorescent scale of the 700 nm images was the same for both treated sets of cells (FIGS. 12C-12D). Although the exact concentration of the antibody probe is not known, the signals from the different probes appear similar in level and intensity.

[4] = system: A431 cells; experiment: VB-48 assay: vitality, viability and necrosis of treatments 1-10 (Table 3); assay type: cell-based
Description: Briefly, A431 cells were labeled with respective probes for specific treatments (listed below); cells were rinsed and evaluated for labeling. The test include the following treatments: […], treatments 3-4 of EGF-IRDye® 700DX at 0.5 μM and radiation, treatments 5-6 of IRDye® 700DX NHSe at 5 μM and radiation, treatments 7-8 of panitumumab-IRDye® 700DX at about 0.1 μM and radiation, treatment 9 of a negative control with no probe and no irradiation, and treatment 10 of RGD-IRDye® 700DX and no irradiation. The probes were incubated for about 10 minutes and with a longer period of about 20 minutes for the RGD probe. The cells were monitored with microscopy and morphology was examination 24 hours post treatment.
Low binding was expected for the RGD probe due to the low level of integrin receptors on A431 cells. […] By 3 hours post-irradiation all treatments except RGD (Treatment 1) show significant cytotoxicity. Vitality, viability and necrosis assays such as a VB-48 assay and JC-1 assay were performed.

[5] = system: serum proteins including albumin (human serum albumin, bovine serum albumin, 5% FBS); experiment: Binding of dye to serum proteins, incubation in 1×PBS and 4-12% Bis-Tris gel
Description: In SDS-PAGE and under non-reducing conditions, ovalbumin has a molecular weight of about 40 kDa, 45 kDa, 63 kDa and 72 kDa. Human serum albumin (HSA) has a molecular with ranging from about 66.6 kDa to about 66.4 kDa or lower under non-reducing conditions. HSA can migrate as an approximately 58-67 kDa band in SDS-PAGE under reducing conditions.
Human serum albumin, bovine serum albumin, 5% FBS and IRDye® 700DX carboxylate were incubated in 1×PBS for 2.5 h at room temperature. Methylene blue was also used as a dye known to bind to albumin and the other serum proteins. The samples were run on a 4-12% Bis-Tris gel. Ovalbumin served as the negative control. The proteins incubated with IRDye® 700DX carboxylate are on the left of the gel and methylene blue samples are on the right (FIG. 4A-B).

[6] = Production of singlet oxygen, Singlet Oxygen Green Sensor, steady state fluorometer; details: for singlet oxygen sensor fluorescence with scavenger sodium azide added: 32 J/cm^2
Description: Dyes and conjugated probes (IRDye 700DX carboxylate (700DX), EGF, RGD, and IgG conjugates) were evaluated for production of singlet oxygen using Singlet Oxygen Green Sensor (Life Technologies) and measured by a steady state fluorometer (ex 504 nm/em 525 nm). Controls (water or DMEM medium) and a positive control of methylene blue (MB) were included.
Measurements were made every second for 30 sec and averaged. Solution makeup: SOGS (1 μM), dye or probe addition (10 μM), Tris pH 7.5 ([…]) and deuterium oxide (50%). Light exposure=32 J/cm^2.

[7] = Stability of IRDye 700DX carboxylate (signal intensity) in PBS and in buffers of pH 2.1-8.2; assay type: physicochemical; details: 37° C.
Description: Evaluation of the effect of pH on the stability of the carboxylate form of the dye was performed at room temperature and at 37° C. For comparison purposes a test of the stability at 37° C. while dissolved in 1×PBS was included. Mcllaine's buffer solution with constant ionic strength was used. […] When the dye was dissolved in various buffers with increasing pH (2.1-8.2) a loss in signal intensity initially occurred between pH 4 and 5 with losses progressively increasing down to pH 2.1 at room temperature (FIG. 3A). At 37° C. this loss initially occurred at a slightly higher pH between pH 5-6 with a progression similar to the tests done at room temperature (FIG. 3B).

[8] = Clearance and biodistribution of IRDye 700DX carboxylate by fluorescence imaging; assay type: in vivo, nude mice
Description: Experiments were performed to evaluate the clearance of IRDye® 700DX carboxylate in nude mice receiving 2 or 4 nmoles of the compound. This is the non-reactive form of the dye and the in vivo elimination kinetics can be used to determine the biodistribution of the dye and a subsequent dye-labeled conjugate. The results for both doses were very similar (only 4 nmole animal images are presented). Clearance appeared to be renal as noted in the dorsal (FIG. 8A) and ventral whole body views (FIG. 9A). The kidneys are visible throughout the dorsal series (FIG. 8A) and liver negligible in ventral series (FIG. 9A). […] A closer examination of the organs after excision is illustrated in FIG. 10B (2 nmole dose). […] All organs imaged (muscle, heart, lungs, liver, brain, spleen, intestine, and kidneys) were analyzed for signal corrected for area.

[9] = irradiation 24 J/cm^2, 0.1 μM, 24 hours post-treatment
[10] = no irradiation, 0.1 μM, 24 hours
[11] = irradiated (I) 10 minutes, 700DX-EGF 0.5 μM, 700DX-Pan about 0.1 μM
[12] = irradiated (I) 32 J/cm^2, RGD 0.5 μM, EGF 0.5 μM, NHSe 5 μM, Pan ~0.1 μM
[13] = 2.5 h incubation, room temperature

Compound: 700DX-Pan [reference compound]
dead irradiated cells ([1]; 10 min incubation, panitumumab probe about 0.1 μM, EGF probe 0.5 μM, 24 hours post irradiation): 62%
necrotic cells after irradiation ([1]; irradiation 24 J/cm^2 (figure legend)): 62%
induction of cell death (morphology) [2, 9]: effectively induced cell death
induction of cell death (morphology) [2, 10]: No measurable effect
effect on cells (morphology) ([3]; irradiated 10 minutes): severely affected by the irradiating energy and were dying
Cells/mL [3, 11]: 2.8 × 10^5 Cells/mL and 4.2 × 10^5 Cells/mL and 2.3 × 10^5 Cells/mL
VB-48 % necrotic [3, 11]: 67% and 87%
% Healthy [4, 12]: 15.0%
% Necrotic [4, 12]: 70%
Cells/mL [4, 12]: 1.2 × 10^5 Cells/mL
Est % Viability [4, 12]: 30-40%
Low % Vitality [4, 12]: 15%
cytotoxicity by microscopy ([4]; irradiated, up to 3 hours post-irradiation): most effective

binding to the serum proteins including albumin [5, 13]: Signal is present
Compound: CN(C)c1ccc2nc3ccc(=[N+](C)C)cc-3sc2c1 [methylene blue]
increase of singlet oxygen sensor fluorescence ([6]; dye or probe 10 μM, SOGS 1 μM, light exposure 32 J/cm^2 (690 nm)): Three- to four-fold
singlet oxygen sensor fluorescence with scavenger sodium azide added [6]: reduction in fluorescence

Compound: silicate(5-), bis[N— [3-[(hydroxy-.kappa.O)dimethylsilyl]propyl]-3-sulfo-N,N-bis(3-sulfopropyl)-1-propanaminiumato(4-)][6-[[[3-[(29H,31H-phthalocyanin-yl-.kappa.N29, .kappa.N30, .kappa.N31, .kappa.N32)oxy]propoxy]carbonyl]amino]hexanoato(3-)]-, sodium (1:5) [IRDye® 700DX carboxylate]
loss of signal intensity (stability) ([7]; 1×PBS, 1 μM): very little loss of signal intensity
pH at which a loss in signal intensity initially occurred ([7]; buffers of increasing pH): 5-6 pH
binding to the serum proteins including albumin ([5]; 1 h post-incubation): not detected
binding to the serum proteins including albumin [5, 13]: evident
primary location of the dye in the kidney (longitudinal slice) ([8]; 4 nmole dose): proximal tubules of the renal cortex
signal in organs other than the liver and kidney ([8]; 24 hours after injection): little to no signal
retention in the liver ([8]; nude mice, 2 or 4 nmoles): no significant retention in the liver
route of clearance ([8]; nude mice, 2 or 4 nmoles, 5 minutes to 24 hours): renal
singlet oxygen sensor fluorescence with scavenger sodium azide added [6]: reduction in fluorescence

Compound: unlabeled panitumumab: unlabeled antibody that binds EGFR
induction of cell death (morphology) [2, 9]: No measurable effect
induction of cell death (morphology) [2, 10]: No measurable effect
